Assay results as given in paper PMC11240878, “Synthesis, enzyme inhibition assay, and molecular modeling study of novel pyrazolines linked to 4-methylsulfonylphenyl scaffold: antitumor activity and cell cycle analysis” (RSC Advances, 2024).
Values joined by “and” are separate entries in the source; they are usually repeats but may differ in a detail not shown here. Equal values may be shown once.

Experiments:
MDA-MB-231 = assay: cells; details: Homo sapiens, MDA-MB-231, 48 h, read-out: In vitro cytotoxicity IC50
Procedure: (§1) The antitumor experiment was conducted on 59 human tumor cell lines derived from nine different human tissues, following the procedure of the Drug Evaluation Branch at the NCI, Bethesda, MD.[33]

leukemia HL-60 = assay: cells; details: Homo sapiens, HL-60, 48 h, read-out: In vitro cytotoxicity IC50
Procedure: as §1

in vitro = details: human
Procedure: (§2) A normal fibroblast-like fetal lung cell line (WI-38) was used to further investigate the therapeutic safety of the newly synthesized hybrids and evaluate their selective cytotoxicity toward normal and tumor cells.[33,77]
as §1

[1] = system: WI-38 normal fibroblast cells; assay: in vitro; details: ratio of WI38 IC50 to cancer cell IC50 values
Procedure: as §2, §1

[2] = system: breast adenocarcinoma MCF-7; assay: cells; details: Homo sapiens, MCF7, 48 h, read-out: In vitro cytotoxicity IC50, MCF-7; MTT, 48 h drug exposure; mean ± SD of three experiments
59 cancer cell lines = assay: NCI 59 cancer cell line panel, single dose; type: cell-based, human; details: 10 μM single dose; for MG% (mean growth percent): 59 cell lines
HL-60(TB) = assay: NCI single-dose GI%, leukemia; type: cell-based, human; details: 10.0 μM in one dose
K-562 = assay: NCI single-dose GI%, leukemia; type: cell-based, human; details: K-562, leukemia; 10.0 μM in one dose
MOLT-4 = assay: NCI single-dose GI%, leukemia; type: cell-based, human; details: MOLT-4, leukemia; 10.0 μM in one dose
RPMI-8226 = assay: NCI single-dose GI%, leukemia; type: cell-based, human; details: RPMI-8226, leukemia; 10.0 μM in one dose
A549/ATCC = assay: NCI single-dose GI%, NSC lung; type: cell-based, human; details: 10.0 μM in one dose
EKVX = assay: NCI single-dose GI%, NSC lung; type: cell-based, human; details: 10.0 μM in one dose
HOP-62 = assay: NCI single-dose GI%, NSC lung; type: cell-based, human; details: HOP-62, NSC lung; 10.0 μM in one dose
NCI-H226 = assay: NCI single-dose GI%, NSC lung; type: cell-based, human; details: 10.0 μM in one dose
NCI-H522 = assay: NCI single-dose GI%, NSC lung; type: cell-based, human; details: 10.0 μM in one dose
HCT-116 = assay: NCI single-dose GI%, colon; type: cell-based, human; details: HCT-116, colon; 10.0 μM in one dose
HT29 = assay: NCI single-dose GI%, colon; type: cell-based, human; details: 10.0 μM in one dose
SNB-75 = assay: NCI single-dose GI%, CNS; type: cell-based, human; details: SNB-75, CNS; 10.0 μM in one dose
UACC-62 = assay: NCI single-dose GI%, melanoma; type: cell-based, human; details: UACC-62, melanoma; 10.0 μM in one dose
SK-OV-3 = assay: NCI single-dose GI%, ovarian; type: cell-based, human; details: SK-OV-3, ovarian; 10.0 μM in one dose
CAKI-1 = assay: NCI single-dose GI%, renal; type: cell-based, human; details: CAKI-1, renal; 10.0 μM in one dose
UO-31 = assay: NCI single-dose GI%, renal; type: cell-based, human; details: UO-31, renal; 10.0 μM in one dose
PC-3 = assay: NCI single-dose GI%, prostate; type: cell-based, human; details: PC-3, prostate; 10.0 μM in one dose
MCF7 = assay: NCI single-dose GI%, breast; type: cell-based, human; details: 10.0 μM in one dose
MDA-MB-231/ATCC = assay: NCI single-dose GI%, breast; type: cell-based, human; details: 10.0 μM in one dose
BT-549 = assay: NCI single-dose GI%, breast; type: cell-based, human; details: BT-549, breast; 10.0 μM in one dose
T-47D = assay: NCI single-dose GI%, breast; type: cell-based, human; details: 10.0 μM in one dose
MDA-MB-468 = assay: NCI single-dose GI%, breast; type: cell-based, human; details: MDA-MB-468, breast; 10.0 μM in one dose
SR = assay: NCI single-dose GI%, leukemia; type: cell-based, human; details: 10.0 μM in one dose
SK-MEL-5 = assay: NCI single-dose GI%, melanoma; type: cell-based, human; details: SK-MEL-5, melanoma; 10.0 μM in one dose
UACC-257 = assay: NCI single-dose GI%, melanoma; type: cell-based, human; details: UACC-257, melanoma; 10.0 μM in one dose
U251 = assay: NCI single-dose GI%, CNS; type: cell-based, human; details: 10.0 μM in one dose
SK-MEL-2 = assay: NCI single-dose GI%, melanoma; type: cell-based, human; details: SK-MEL-2, melanoma; 10.0 μM in one dose
HL-60 cells = assay: Cell cycle analysis by flow cytometry; type: cell-based, human; details: at IC50 concentration
Procedure: Flow cytometry measures cell growth in different cell cycle phases (G0–G1, S, G2/M and pre-G1).[33,77] This study aimed to find out how the target compounds affect the growth of cancer cells by examining at how they change the cell cycle and cause apoptosis in HL-60 cells.
The cell cycle analysis was conducted similarly to our prior study, using the leukemia HL-60 cell line. The cells were stained with the DNA fluorochrome PI and analyzed using a FACSCalibur flow cytometer.[33,77]

A498 = assay: NCI single-dose GI%, renal; type: cell-based, human; details: 10.0 μM in one dose

COc1cccc2c1C(=O)c1c(O)c3c(c(O)c1C2=O)C[C@@](O)(C(=O)CO)C[C@@H]3O[C@H]1C[C@H](N)[C@H](O)[C@H](C)O1 [DOX, doxorubicin, reference compound]
IC50 (MDA-MB-231): 5.1 ± 0.31 µM
IC50 (leukemia HL-60): 6.01 ± 0.2 µM
IC50 at 48 h (in vitro): 7.12 ± 0.7 µM
Mean tumor selectivity index (WI38/HL60, MCF7, and MDA-MB-231) [1]: 1.36
IC50 [2]: 4.77 ± 0.4 µM

CS(=O)(=O)c1ccc(C(=O)N2N=C(c3ccccc3)CC2c2ccc(Cl)cc2)cc1 (stereo not drawn) [Compound 18b, (5-(4-Chlorophenyl)-3-phenyl-4,5-dihydro-1H-pyrazol-1-yl)(4-(methylsulfonyl)phenyl)methanone]
PCE (positive cytotoxic effect: ratio of cell lines with growth inhibition >10% to total cell lines) (59 cancer cell lines): 22/59
MG% (mean growth percent) (59 cancer cell lines): 92.03%
GI% (HL-60(TB)): 22%
GI% (K-562): 32%
GI% (MOLT-4): 17%
GI% (RPMI-8226): 11%
GI% (A549/ATCC): 13%
GI% (EKVX): 21%
GI% (HOP-62): 29%
GI% (NCI-H226): 15%
GI% (NCI-H522): 27%
GI% (HCT-116): 26%
GI% (HT29): 13%
GI% (SNB-75): 13%
GI% (UACC-62): 14%
GI% (SK-OV-3): 26%
GI% (CAKI-1): 18%
GI% (UO-31): 32%
GI% (PC-3): 22%
GI% (MCF7): 13%
GI% (MDA-MB-231/ATCC): 11%
GI% (BT-549): 14%
GI% (T-47D): 31%
GI% (MDA-MB-468): 12%
melting point: 321 to 323 °C

COc1ccc(C2CC(c3ccc(OC)cc3OC)=NN2C(=O)c2ccc(S(C)(=O)=O)cc2)cc1 (stereo not drawn) [Compound 18o, (3-(2,4-Dimethoxyphenyl)-5-(4-methoxyphenyl)-4,5-dihydro-1H-pyrazol-1-yl)(4-(methylsulfonyl)phenyl)methanone]
PCE (positive cytotoxic effect: ratio of cell lines with growth inhibition >10% to total cell lines) (59 cancer cell lines): 15/59
MG% (mean growth percent) (59 cancer cell lines): 94.17%
GI% (HL-60(TB)): 51%
GI% (K-562): 32%
GI% (MOLT-4): 40%
GI% (SR): 11%
GI% (A549/ATCC): 31%
GI% (HOP-62): 18%
GI% (NCI-H522): 43%
GI% (HT29): 17%
GI% (SNB-75): 15%
GI% (SK-MEL-5): 12%
GI% (UACC-257): 38%
GI% (CAKI-1): 12%
GI% (UO-31): 19%
GI% (BT-549): 11%
GI% (T-47D): 18%
melting point: 268 to 270 °C

Cc1ccc(C2CC(c3ccccc3)=NN2C(=O)c2ccc(S(C)(=O)=O)cc2)cc1 (stereo not drawn) [Compound 18f, (4-(Methylsulfonyl)phenyl)(3-phenyl-5-(4-tolyl)-4,5-dihydro-1H-pyrazol-1-yl)methanone]
PCE (positive cytotoxic effect: ratio of cell lines with growth inhibition >10% to total cell lines) (59 cancer cell lines): 21/59
MG% (mean growth percent) (59 cancer cell lines): 93.80%
GI% (HL-60(TB)): 14%
GI% (MOLT-4): 30%
GI% (RPMI-8226): 18%
GI% (A549/ATCC): 16%
GI% (EKVX): 13%
GI% (HOP-62): 12%
GI% (NCI-H226): 17%
GI% (NCI-H522): 37%
GI% (HCT-116): 20%
GI% (HT29): 12%
GI% (SNB-75): 20%
GI% (U251): 11%
GI% (SK-MEL-2): 11%
GI% (UACC-257): 26%
GI% (UACC-62): 12%
GI% (CAKI-1): 16%
GI% (UO-31): 24%
GI% (PC-3): 28%
GI% (MCF7): 11%
GI% (T-47D): 16%
GI% (MDA-MB-468): 15%
phase of cell cycle arrest (HL-60 cells): S/G2 phase
melting point: 225 to 227 °C

CN(C)C/C=C/C(=O)Nc1cc2c(Nc3ccc(F)c(Cl)c3)ncnc2cc1O[C@H]1CCOC1 [Afatinib, reference compound]
IC50 (MDA-MB-231): 8.05 ± 0.72 µM
IC50 (leukemia HL-60): 6.5 ± 0.77 µM
IC50 at 48 h (in vitro): 44 ± 1.9 µM
Mean tumor selectivity index (WI38/HL60, MCF7, and MDA-MB-231) [1]: 5.93
IC50 [2]: 7.91 ± 0.66 µM

COc1ccc(C2=NN(C(=O)c3ccc(S(C)(=O)=O)cc3)C(c3ccccc3)C2)cc1 (stereo not drawn) [Compound 18k, (3-(4-Methoxyphenyl)-5-phenyl-4,5-dihydro-1H-pyrazol-1-yl)(4-(methylsulfonyl)phenyl)methanone]
PCE (positive cytotoxic effect: ratio of cell lines with growth inhibition >10% to total cell lines) (59 cancer cell lines): ≤ 12/59 and 12/59
MG% (mean growth percent) (59 cancer cell lines): 97.49%
GI% (HL-60(TB)): 18%
GI% (MOLT-4): 27%
GI% (RPMI-8226): 11%
GI% (A549/ATCC): 13%
GI% (NCI-H226): 14%
GI% (NCI-H522): 35%
GI% (HT29): 20%
GI% (SNB-75): 11%
GI% (SK-MEL-5): 14%
GI% (UO-31): 15%
GI% (PC-3): 21%
GI% (MDA-MB-468): 16%
melting point: 226 to 228 °C

COc1ccc(C2=NN(C(=O)c3ccc(S(C)(=O)=O)cc3)C(c3cc(OC)c(OC)c(OC)c3)C2)cc1OC (stereo not drawn) [Compound 18q, (3-(3,4-Dimethoxyphenyl)-5-(3,4,5-trimethoxyphenyl)-4,5-dihydro-1H-pyrazol-1-yl)(4-(methylsulfonyl)phenyl)methanone]
PCE (positive cytotoxic effect: ratio of cell lines with growth inhibition >10% to total cell lines) (59 cancer cell lines): 6/59
MG% (mean growth percent) (59 cancer cell lines): 97.51%
GI% (SNB-75): 13%
GI% (A498): 13%
GI% (CAKI-1): 13%
GI% (UO-31): 24%
GI% (MCF7): 12%
GI% (MDA-MB-468): 12%
melting point: 150 to 152 °C
